According to US6730666B1, “Pharmaceutical compositions comprising porphyrins and some novel porphyrin derivatives” (Yeda Research and Development Co. Ltd., priority 1998, dated 2004):
Entries after “also recorded” stand apart in the source; their conditions may differ. Where two headings read alike, the source gives them in different places.

Legend:
[1] = test system: Lewis lung carcinoma (LLC) lung metastasis; assay: Lewis lung carcinoma lung metastasis model; format: in vivo, C57 black mice; set-up: Inhibitory activity in vivo, LLC tumor model (as % of total inhibition): reference not given here; conditions: for Inhibitory activity in vivo, LLC tumor model (as % of total inhibition): 25 μg/gram, LLC murine tumor model, lung metastasis
Procedure: (vii) Lewis lung carcinoma tumor assay. Murine Lewis lung carcinoma (LLC) D122 cells (1×10^6 cells/[…] PBS) were injected into the foot pads of 10-week old C57 black mice (O'Reilly et al, 1994). Twenty five μg/g of body mass of porphyrin or corrole compound dissolved in PBS were injected IP twice a week to the treated group, and tumor size was measured periodically in order to follow primary tumor formation. In order to evaluate inhibition of lung metastasis by porphyrin or corrole compound, the primary tumors were allowed to develop over a period of six weeks to a volume of approximately 8 mm^3; after which the tumors were removed and metastases were allowed to develop for four weeks. During this time the treated group received 25 μg/g of body mass of porphyrin or corrole compound IP twice a week. Subsequently the mice were sacrificed, dissected and the lungs removed and photographed. The extent of lung metastasis was measured by weighing the lungs.
After establishing the capacity of P1 to inhibit primary tumor growth, the capacity of P1 to inhibit lung metastasis formation was measured as described in Methods, section (vi). Mice were injected with LLC cells (200,000 cells per mouse) into the foot pad and primary tumors were allowed to develop over a period of 3 to 4 weeks to a volume of approximately 8 mm^3. Subsequently, primary tumors were removed through amputation and lung metasases were allowed to develop for four weeks before the mice were sacrificed. The extent of lung metastasis at this point was examined by gross morphological examination and by determining the gain in lung weight. […] In order to quantitate the results from these experiments, the lungs from all mice were weighed and evaluated for the extent of metastatic growth.

[2] = test system: FGFR-3 expressing CHO cells; assay: FGF-9 induced mitogenic activity (DNA synthesis) of FGFR-3 expressing CHO cells; format: cell-based; conditions: FIG. 13
Procedure: CHO cells genetically engineered to express FGFR-3 were grown in the presence of increasing concentrations of porphyrins P1 and P16 in order to determine the ability of the porphyrins to inhibit FGF-9 induced DNA synthesis.
CHO cells genetically engineered to express FGFR-3 were used in order to determine the ability of the porphyrins P1 and P16 to inhibit biological activity of FGFR3 as measured by the level of DNA synthesis induced by FGF-9.

smooth muscle cells = assay: Smooth muscle cell proliferation induced by bFGF; format: cell-based; conditions: 2 μg/ml or 20 μg/ml of P1; bFGF 10 ng/ml; FIG. 16
Procedure: In order to determine the ability of P1 to inhibit the biological activity of bFGF on cell proliferation, smooth muscle cells were grown in 24-well plates in the presence of bFGF (10 ng/ml) and in the presence of 2 μg/ml or 20 μg/ml of P1. Cell number was determined daily by counting cell samples under a microscope.

FGFR-1 [3] = target: T1, FGFR-1 (Mus musculus, UniProt P16092); assay: Binding of 125I-bFGF to CHO cells expressing FGFR-1
T1 sequence (P16092 22-822): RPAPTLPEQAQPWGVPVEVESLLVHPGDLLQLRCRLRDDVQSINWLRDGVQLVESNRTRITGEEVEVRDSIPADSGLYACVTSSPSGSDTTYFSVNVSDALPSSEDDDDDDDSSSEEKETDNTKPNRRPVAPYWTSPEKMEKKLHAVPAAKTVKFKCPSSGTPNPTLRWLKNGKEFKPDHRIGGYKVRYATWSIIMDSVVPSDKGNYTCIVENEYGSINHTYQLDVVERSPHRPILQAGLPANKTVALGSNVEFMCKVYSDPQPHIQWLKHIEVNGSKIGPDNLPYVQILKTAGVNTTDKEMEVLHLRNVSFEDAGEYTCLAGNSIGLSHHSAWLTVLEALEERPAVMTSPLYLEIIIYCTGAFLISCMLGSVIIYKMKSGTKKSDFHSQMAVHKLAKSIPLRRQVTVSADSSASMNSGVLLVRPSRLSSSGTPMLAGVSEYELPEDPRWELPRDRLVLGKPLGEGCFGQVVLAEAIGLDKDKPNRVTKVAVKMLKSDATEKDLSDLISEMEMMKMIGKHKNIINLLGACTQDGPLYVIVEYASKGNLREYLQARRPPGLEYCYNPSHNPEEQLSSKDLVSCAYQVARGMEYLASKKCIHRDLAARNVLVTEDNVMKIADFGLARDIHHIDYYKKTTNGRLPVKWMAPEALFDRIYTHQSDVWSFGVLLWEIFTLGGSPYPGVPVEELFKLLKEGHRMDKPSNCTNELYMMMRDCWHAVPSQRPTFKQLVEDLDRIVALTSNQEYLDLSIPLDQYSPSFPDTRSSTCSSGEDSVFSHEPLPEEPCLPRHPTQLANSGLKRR
Description: First we utilized a cell-free system, measuring the binding of radiolabeled bFGF to a dimeric soluble FGFR-1 fused to alkaline phosphatase. The soluble FRAP was immobilized using an anti-alkaline phosphatase antibody prebound to agarose-protein A beads (see Methods, section (iii)). As a: second experimental model, we used CHO cells deficient in heparan sulfate and genetically engineered to express FGFR-1 (Methods, section (iv)).

soluble FGFR-1 (FRAP) = target: T2, soluble FGFR-1 (FRAP) (Mus musculus, UniProt P16092); assay: Binding of 125I-bFGF to immobilized soluble FGFR-1 (FRAP), cell-free
T2 sequence (P16092 22-376 limits assumed): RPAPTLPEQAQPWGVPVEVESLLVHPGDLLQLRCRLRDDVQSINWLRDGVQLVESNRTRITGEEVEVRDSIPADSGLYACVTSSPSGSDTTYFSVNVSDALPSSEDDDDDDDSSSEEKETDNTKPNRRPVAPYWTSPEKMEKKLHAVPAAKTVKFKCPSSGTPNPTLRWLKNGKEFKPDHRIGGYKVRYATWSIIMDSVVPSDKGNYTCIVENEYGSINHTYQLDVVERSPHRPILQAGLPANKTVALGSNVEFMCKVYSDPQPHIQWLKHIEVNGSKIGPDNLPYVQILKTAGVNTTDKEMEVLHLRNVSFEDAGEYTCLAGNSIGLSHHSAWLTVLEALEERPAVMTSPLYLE
Description: First we utilized a cell-free system, measuring the binding of radiolabeled bFGF to a dimeric soluble FGFR-1 fused to alkaline phosphatase. […] As a: second experimental model, we used CHO cells deficient in heparan sulfate and genetically engineered to express FGFR-1 (Methods, section (iv)).

FGFR-1 [4] = target: T1, FGFR-1; assay: Covalent cross-linking of 125I-bFGF to CHO cells transfected with FGFR-1; format: binding; set-up: expressed in transfected cells; host or cells: CHO cells deficient in heparan sulfate; conditions: FIG. 2
Procedure: Binding of ^125I-bFGF to confluent monolayers of PGFR-1 expressing CHO cells or ^125I-FGF9 to FGFR-3 expressing CHO cells, was performed as described in Methods, section (iv), in the presence or absence of P1 (Inhibitor). After 90 min, disuccinylimidyl suberate [DSS]
(§1) (iv) Binding of ^125I-bFGF and ^125I-FGF9 to cells. Confluent cultures of CHO cells expressing FGFR-1(Yayon et al, 1991) or FGFR-3 (Hecht et al, 1995) in 24-well plates (Falcon) were precooled and washed twice with cold DMEM supplemented with 20 mM Hepes (pH 7.5) and 0.1% bovine serum albumin (DMEM/BSA). They were then incubated for 1.5 h at 4° C. with ^125I-bFGF (2 ng/ml) and increasing concentrations of porphyrin/corrole compound. The binding medium was discarded and the cells were washed once with ice-cold DMEM/BSA and twice with cold PBS (pH 7.5) containing 1.6M NaCl. […] Non-specific binding was determined in the presence of a 100-fold excess of unlabeled bFGF.
In order to unequivocally determine the specificity of the binding inhibition, chemical cross-linking of ^125I-bFGF and ^125I-FGF9 to CHO cells transfected with FGFR-1 and FGFR-3, respectively, was carried out as described in Methods, section (iv), in the absence or presence of increasing concentrations of P1.

FGFR-3 = target: T3, FGFR-3 (Homo sapiens, UniProt P22607); assay: Binding of 125I-FGF9 to CHO cells transfected with FGFR-3; conditions: FIG. 12
T3 construct: expressed in transfected cells; host or cells: CHO cells (mutant 745)
T3 sequence (P22607 23-806, species assumed): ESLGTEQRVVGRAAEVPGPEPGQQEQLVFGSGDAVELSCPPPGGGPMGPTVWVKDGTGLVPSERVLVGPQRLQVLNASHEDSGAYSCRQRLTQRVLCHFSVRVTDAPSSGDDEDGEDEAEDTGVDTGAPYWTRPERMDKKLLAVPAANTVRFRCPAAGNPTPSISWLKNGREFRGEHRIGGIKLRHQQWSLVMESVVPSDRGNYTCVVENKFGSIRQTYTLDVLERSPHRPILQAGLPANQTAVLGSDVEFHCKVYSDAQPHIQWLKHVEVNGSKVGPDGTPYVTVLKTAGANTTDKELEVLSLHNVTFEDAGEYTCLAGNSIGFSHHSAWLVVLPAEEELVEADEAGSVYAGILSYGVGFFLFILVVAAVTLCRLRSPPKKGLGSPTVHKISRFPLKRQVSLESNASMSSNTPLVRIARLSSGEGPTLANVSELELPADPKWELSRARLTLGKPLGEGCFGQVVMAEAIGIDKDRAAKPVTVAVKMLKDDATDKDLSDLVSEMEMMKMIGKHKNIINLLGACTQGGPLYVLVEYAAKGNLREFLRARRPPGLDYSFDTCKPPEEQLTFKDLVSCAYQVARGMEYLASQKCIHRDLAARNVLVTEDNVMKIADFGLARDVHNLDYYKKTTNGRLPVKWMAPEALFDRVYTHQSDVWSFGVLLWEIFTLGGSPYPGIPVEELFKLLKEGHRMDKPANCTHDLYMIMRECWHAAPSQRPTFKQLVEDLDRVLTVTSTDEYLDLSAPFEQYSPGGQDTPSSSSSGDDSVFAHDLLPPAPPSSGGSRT
Procedure: CHO mutant cells-745 expressing FGFR-3 were incubated for 90 min at 4° C. in the presence of increasing concentrations of the porphyrins, with 1 μg/ml of heparin and ^125I-FGF9 (2 ng/ml). The binding medium was discarded and the cells were washed with ice cold DMEM/BSA. To determine receptor binding of ^125I-FGF9, the cells were incubated in cold PBS (pH 4) containing 1.6M NaCl and 25 mM HEPES, and the cell extract was counted in a γ-counter.
as §1

FGF receptor = FGF receptor (Mus musculus, UniProt P16092); assay: In vitro inhibition of bFGF binding (assay format not stated); conditions: inhibition of bFGF binding
FGF receptor, sequence (P16092 22-822): as the sequence (P16092 22-822) above

SMILES	Inhibition of lung metastasis in LLC model, in words ([1]; 25 μg/g of body mass IP)	Inhibitory activity in vivo, LLC tumor model (as % of total inhibition) [1]	Lung weight ([1]; P1 25 μg/g of body mass, FIG. 7)	Effect on cell proliferation induced by FGF-9 [2]	Effect on smooth muscle cell proliferation induced by bFGF (smooth muscle cells)	IC50 (FGFR-1 [3]; Cellular receptor binding (IC50), binding of FGF to FGFR, Methods section (iv))	IC50 (FGFR-1 [3]; IC50, bFGF binding in the cellular receptor system, FIG. 1C)	IC50 (soluble FGFR-1 (FRAP); IC50, bFGF-FGFR1 binding in the soluble receptor (FRAP) assay, FIG. 1B)	IC50 (soluble FGFR-1 (FRAP); Soluble receptor binding (IC50), binding of FGF to FGFR, Methods section (iii))	Inhibition of bFGF-receptor complex formation (cross-linking), in words (FGFR-1 [4])	IC50, FGF-9 binding in the cellular receptor system (FGFR-3)	Activity in vitro relative to P1 (fold) (FGF receptor)	IC50 (FGFR-1 [3]; read-out: Cellular receptor binding (IC50), binding of FGF to FGFR, Methods section (iv))	IC50 (soluble FGFR-1 (FRAP); read-out: Soluble receptor binding (IC50), binding of FGF to FGFR, Methods section (iii))
C[n+]1ccc(-c2c3nc(c(-c4cc[n+](C)cc4)c4ccc([nH]4)c(-c4cc[n+](C)cc4)c4nc(c(-c5cc[n+](C)cc5)c5ccc2[nH]5)C=C4)C=C3)cc1 [Compound P1, 5,10,15,20-Tetrakis(N-methyl-4-pyridylium)-21H,23H-porphine tetra-p-tosylate]	no metastatic phenotype; also recorded: nearly total inhibition of the metastatic phenotype	100%	around 200 mg	strong inhibitory effect	strong inhibitory effect	1500 nM	~2500 nM	~1000 nM	750 nM	inhibition of formation of a typical bFGF-receptor complex	–	–	–	–
C[n+]1ccc(-c2c3nc(c(-c4cc[n+](C)cc4)c4ccc([nH]4)c(-c4c(F)c(F)c(F)c(F)c4F)c4nc(c(-c5cc[n+](C)cc5)c5ccc2[nH]5)C=C4)C=C3)cc1.[I-].[I-].[I-] [Compound P16, 5-Pentafluorophenyl-10,15,20-tris(N-methyl-4-pyridylium)-21H,23H-porphine triiodide]	–	60%	–	strong inhibitory effect	–	–	–	–	–	–	0.1 µg/mL	about 50 fold	20 nM	10 nM
